Patent US20230218632A1, “CYCLIC SULFONAMIDE DERIVATIVES AS TRAP1 MODULATORS AND USES THEREOF” (Amathus Therapeutics, Inc., priority 2020, published 2023)

Experiments:
[1] = test system: mIMCD3 Pkd1 KO cells; assay: Mouse cell derived cyst assay; assay type: cell-based; conditions: Pkd 1 KO mouse cell derived cyst forming assay; FIG. 6
Protocol: Mouse cell derived cyst assays were performed as described in Booij, Tijmen H et al., SLAS discovery: advancing life sciences R & D vol. 22,8 (2017): 974-984, or as described below.
Murine inner medullary collecting duct cell line (mIMCD3 Pkd1^-/- cells) • mIMCD3 Pkd1 KO cells were seeded in 384 wells plates in extracellular matrix. • 4 days after seeding, cultures were co-exposed to treatments and stimuli (2.5 µM forskolin); • After 72 h, cultures were fixed, stained for nuclei and actin cytoskeleton and imaged with 4x magnification; and • Image analysis of the 3D stack was done using Ominer™ image analysis software.

[2] = biological target: T1, nanoLuc TRAP1 (Homo sapiens, UniProt Q12931); assay: NanoBRET in-cell target engagement assay; assay type: binding; conditions: probe-385, 1 µM; live SHSY5Y cells; FIG. 2
T1 construct: expressed in transfected cells; host or cells: SH-SY5Y cells, transient transfection with FuGENE HD
T1 sequence (Q12931 60-704): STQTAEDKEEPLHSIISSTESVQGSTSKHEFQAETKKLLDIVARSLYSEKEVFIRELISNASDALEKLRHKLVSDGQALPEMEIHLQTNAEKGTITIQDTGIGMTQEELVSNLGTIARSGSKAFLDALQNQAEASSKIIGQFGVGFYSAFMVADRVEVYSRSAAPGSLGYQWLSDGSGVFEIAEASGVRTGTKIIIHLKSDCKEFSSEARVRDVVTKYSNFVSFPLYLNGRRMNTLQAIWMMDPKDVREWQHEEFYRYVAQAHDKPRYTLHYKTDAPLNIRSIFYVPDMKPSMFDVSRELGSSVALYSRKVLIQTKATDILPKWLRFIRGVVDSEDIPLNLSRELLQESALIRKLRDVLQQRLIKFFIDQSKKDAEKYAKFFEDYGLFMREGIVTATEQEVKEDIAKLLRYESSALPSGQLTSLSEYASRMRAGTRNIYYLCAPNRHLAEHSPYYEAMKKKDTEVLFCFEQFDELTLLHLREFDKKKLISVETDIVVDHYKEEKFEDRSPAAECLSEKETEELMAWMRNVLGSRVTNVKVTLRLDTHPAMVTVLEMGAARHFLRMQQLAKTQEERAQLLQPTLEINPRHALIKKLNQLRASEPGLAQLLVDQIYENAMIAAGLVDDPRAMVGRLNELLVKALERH
Protocol: In-cell target engagement assays were performed as described in Robers M.B. et al. (2019) Quantitative, Real-Time Measurements of Intracellular Target Engagement Using Energy Transfer. In: Ziegler S., Waldmann H. (eds) Systems Chemical Biology. Methods in Molecular Biology, vol 1888. Humana Press, New York, NY; Machleidt et al., ACS Chem. Biol. 2015, 10, 8, 1797-1804; or Vasta et al., Cell Chemical Biology 25, 206-214, Feb. 15, 2018; or as described herein.
Below is a protocol for transient transfection of SHSY5Y cells with NanoLuc® fusions. • 1. Cultivate SHSY5Y cells appropriately prior to assay in MEM w NEAA supplemented with 10% FBS. • 2. Remove medium from cell flask via aspiration, trypsinize, and allow cells to dissociate from the flask. • 3. Neutralize trypsin using growth medium and pellet cells via centrifugation at 200 g for 5 minutes. • 4. Aspirate medium and re-suspend cells into a single cell suspension using complete cell culture medium. • 5. Adjust the cell density to 300 K/mL in cell culture medium in a sterile, conical tube. • 6. Prepare lipid:DNA complexes as follows (this covers two assay plates, adjust numbers for more plates) • a. Prepare a 10 µg/mL solution of DNA in Opti-MEM without serum. This solution should contain the following ratios of carrier DNA and DNA encoding NanoLuc® fusion. • i. 5.0 µg/mL of Transfection Carrier DNA (pGEM) • ii. […]

- displacement of nanoBRET tracer [2]: displacing the nanoBRET tracer molecule
SMILES: O=C(Nc1ccc2c(c1)S(=O)(=O)N(c1ccc(Br)cc1)CCO2)c1cnc(-c2ccccc2)[nH]1 [Compound 1331, N-(2-(4-bromophenyl)-1,1-dioxido-3,4-dihydro-2H-benzo[b][1,4,5]oxathiazepin-8-yl)-2-phenyl-1H-imidazole-5-carboxamide]
- cyst formation [1]: preventing cyst formation
